Measurements as given in the supplement of paper PMC10883282.
± gives the standard deviation of the averaged measurements.

System: KHOS-NP
Experiment: relative viability vs DMSO control (72 h) (fraction); higher = more viable cells
Method in brief: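 Sarcoma cell lines in 384-well plates, seeded to reach 80–90% confluence, were given compound after 24 h and kept 72 h at 37 °C, 5% CO2, with 0.1% DMSO vehicle and a 5 µM positive control. Relative viability came from ATPLite as percent growth, averaged over up to triplicate wells. On the rescaled values, 1 equals full and 0 equals none.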

Compound	relative viability (0.00017 µM)	relative viability (0.00051 µM)	relative viability (0.00152 µM)	relative viability (0.00457 µM)	relative viability (0.01372 µM)	relative viability (0.04115 µM)	relative viability (0.1235 µM)	relative viability (0.3704 µM)	relative viability (1.111 µM)	relative viability (3.333 µM)	relative viability (10 µM)
CO[C@H]1C[C@@H]2CC[C@@H](C)[C@@](O)(O2)C(=O)C(=O)N2CCCC[C@H]2C(=O)O[C@H]([C@H](C)C[C@@H]2CC[C@@H](OP(C)(C)=O)[C@H](OC)C2)CC(=O)[C@H](C)/C=C(\C)[C@@H](O)[C@@H](OC)C(=O)[C@H](C)C[C@H](C)/C=C/C=C/C=C/1C [Ridaforolimus]	1.11 ± 0.033	1.1 ± 0.011	1.09 ± 0.015	1.1 ± 0.016	1.08 ± 0.03	1.08 ± 0.033	1.07 ± 0.033	1.06 ± 0.045	1.07 ± 0.026	1.02 ± 0.032	1.01 ± 0.02
O=C(Cc1ccc(-c2ccc(OCCN3CCOCC3)cc2)cn1)NCc1ccccc1 [KX2-391]	1.106 ± 0.0028	1.11 ± 0.033	1.11 ± 0.031	1.11 ± 0.036	1.09 ± 0.03	1.039 ± 0.01	0.586 ± 0.013	0.456 ± 0.026	0.378 ± 0.0089	0.376 ± 0.0087	0.364 ± 0.028
COc1cc2nccc(Oc3ccc(NC(=O)Nc4cc(C)on4)c(Cl)c3)c2cc1OC [Tivozanib]	1.08 ± 0.013	1.06 ± 0.016	1.06 ± 0.027	1.08 ± 0.021	1.074 ± 0.005	1.06 ± 0.034	1.09 ± 0.018	1.05 ± 0.031	1.06 ± 0.023	1.03 ± 0.027	0.719 ± 0.015
CCc1cc2c(cc1N1CCC(N3CCOCC3)CC1)C(C)(C)c1[nH]c3cc(C#N)ccc3c1C2=O [Alectinib]	1.07 ± 0.032	1.09 ± 0.031	1.082 ± 0.0076	1.08 ± 0.011	1.08 ± 0.013	1.089 ± 0.0044	1.09 ± 0.021	1.074 ± 0.0034	1.06 ± 0.026	1.05 ± 0.01	1.04 ± 0.044
COCc1c(-c2cc3cc(C)cc(OC)c3s2)c2c(N)ncnn2c1CN1CCNC(=O)C1 [Rogaratinib]	1.09 ± 0.019	1.1 ± 0.014	1.08 ± 0.012	1.09 ± 0.0024	1.08 ± 0.032	1.06 ± 0.016	1.06 ± 0.018	1.06 ± 0.017	1.09 ± 0.023	1.04 ± 0.09	0.877 ± 0.031
CN1CCC(COc2cnc(-c3cccc(Cn4nc(-c5cccc(C#N)c5)ccc4=O)c3)nc2)CC1 [Tepotinib]	1.09 ± 0.054	1.11 ± 0.024	1.11 ± 0.012	1.09 ± 0.013	1.08 ± 0.012	1.08 ± 0.026	1.07 ± 0.015	1.03 ± 0.023	1.01 ± 0.023	0.995 ± 0.021	0.975 ± 0.014
Cc1cnc(Nc2ccc(OCCN3CCCC3)cc2)nc1Nc1cccc(S(=O)(=O)NC(C)(C)C)c1 [Fedratinib]	1.09 ± 0.023	1.08 ± 0.049	1.08 ± 0.05	1.09 ± 0.016	1.07 ± 0.022	1.06 ± 0.018	1.02 ± 0.029	1.01 ± 0.039	0.905 ± 0.046	0.511 ± 0.017	0.216 ± 0.0037
Cn1cnc2c(F)c(Nc3ccc(Br)cc3F)c(C(=O)NOCCO)cc21 [Binimetinib]	1.06 ± 0.034	1.09 ± 0.015	1.081 ± 0.004	1.097 ± 0.0049	1.06 ± 0.045	0.943 ± 0.075	0.857 ± 0.012	0.802 ± 0.066	0.425 ± 0.015	0.291 ± 0.016	0.276 ± 0.012
C[C@@H]1CCN(C(=O)CC#N)C[C@@H]1N(C)c1ncnc2[nH]ccc12 [Tofacitinib]	1.08 ± 0.037	1.092 ± 0.01	1.08 ± 0.031	1.09 ± 0.036	1.05 ± 0.034	1.07 ± 0.053	1.06 ± 0.049	1.05 ± 0.029	1.03 ± 0.011	1.02 ± 0.051	0.941 ± 0.015
Nc1cc(C(F)(F)F)c(-c2cc(N3CCOCC3)nc(N3CCOCC3)n2)cn1 [Buparlisib]	1.067 ± 0.01	1.03 ± 0.024	1.07 ± 0.038	1.06 ± 0.012	1.07 ± 0.033	1.05 ± 0.013	1.07 ± 0.022	1.07 ± 0.048	0.944 ± 0.053	0.426 ± 0.026	0.266 ± 0.013
Cn1cc(-c2cc3c(N4CCN(c5ncc([C@@](C)(N)c6ccc(F)cc6)cn5)CC4)ncnn3c2)cn1 [Avapritinib]	1.021 ± 0.0094	1.05 ± 0.031	1.02 ± 0.027	1.04 ± 0.029	1.03 ± 0.017	1.03 ± 0.015	1 ± 0.022	0.948 ± 0.041	0.861 ± 0.024	0.685 ± 0.033	0.586 ± 0.048
C=CC(=O)N1CCC([C@@H]2CCNc3c(C(N)=O)c(-c4ccc(Oc5ccccc5)cc4)nn32)CC1 [Zanubrutinib]	1.01 ± 0.015	1.03 ± 0.024	1.03 ± 0.032	1.01 ± 0.015	1.041 ± 0.0094	1.05 ± 0.018	1.01 ± 0.013	1.04 ± 0.015	1.02 ± 0.023	1.01 ± 0.029	1.05 ± 0.03
CCCS(=O)(=O)Nc1ccc(F)c(C(=O)c2c[nH]c3ncc(-c4ccc(Cl)cc4)cc23)c1F [Vemurafenib]	1.08 ± 0.029	1.074 ± 0.0078	1.08 ± 0.032	1.09 ± 0.017	1.09 ± 0.025	1.08 ± 0.023	1.09 ± 0.03	1.08 ± 0.03	1.07 ± 0.034	1.06 ± 0.018	0.601 ± 0.031
COc1cc2c(Oc3ccc4[nH]c(C)cc4c3F)ncnc2cc1OCCCN1CCCC1 [Cediranib]	1.08 ± 0.025	1.11 ± 0.02	1.09 ± 0.013	1.08 ± 0.015	1.09 ± 0.018	1.09 ± 0.014	1.04 ± 0.027	1.07 ± 0.029	1.036 ± 0.0041	1.05 ± 0.016	1.03 ± 0.023
CC[C@H](Nc1ncnc2[nH]cnc12)c1nc2cccc(F)c2c(=O)n1-c1ccccc1 [Idelalisib]	1.117 ± 0.0096	1.12 ± 0.017	1.12 ± 0.022	1.105 ± 0.01	1.11 ± 0.041	1.11 ± 0.025	1.1 ± 0.046	1.1 ± 0.024	1.085 ± 0.0061	1.06 ± 0.043	1.04 ± 0.019
Cc1cc(Nc2ncnc3ccc(NC4=NC(C)(C)CO4)cc23)ccc1Oc1ccn2ncnc2c1 [Tucatinib]	1.09 ± 0.023	1.14 ± 0.021	1.13 ± 0.014	1.11 ± 0.029	1.09 ± 0.018	1.09 ± 0.025	1.12 ± 0.017	1.1 ± 0.017	1.12 ± 0.016	1.09 ± 0.02	1.11 ± 0.014
N#CC[C@H](C1CCCC1)n1cc(-c2ncnc3[nH]ccc23)cn1 [Ruxolitinib]	1.04 ± 0.024	1.04 ± 0.028	1.05 ± 0.03	1.03 ± 0.036	1.02 ± 0.033	1.03 ± 0.038	1.015 ± 0.0094	0.995 ± 0.062	0.988 ± 0.044	0.9816 ± 0.0032	0.809 ± 0.031
Cc1ccc(F)c(NC(=O)Nc2ccc(-c3cccc4[nH]nc(N)c34)cc2)c1 [Linifanib]	1.1 ± 0.012	1.1 ± 0.016	1.09 ± 0.027	1.09 ± 0.024	1.05 ± 0.016	1.07 ± 0.015	1.052 ± 0.0063	1.05 ± 0.039	1.03 ± 0.037	0.968 ± 0.019	1.01 ± 0.059
Cc1nc(NC(=O)N2CCC[C@H]2C(N)=O)sc1-c1ccnc(C(C)(C)C(F)(F)F)c1 [Alpelisib]	1.07 ± 0.031	1.073 ± 0.0087	1.06 ± 0.024	1.05 ± 0.021	1.03 ± 0.028	1.02 ± 0.018	1.02 ± 0.067	1.04 ± 0.014	0.992 ± 0.053	0.9227 ± 0.0047	0.828 ± 0.049
